In data set [1] the test system is RAW 264.7 cells. The data set is described as follows: Cell viability assay (WST-1). Format: cell-based, murine. The conditions noted are these: for IC50: Mus musculus; for concentration at which cell viability was significantly decreased (cytotoxic): range tested 0–100 μg/mL; for effect on cell viability (in words): 0–100 μg/mL. The method, then:
(§1) The RAW 264.7 cells were seeded at 1 × 10^6 cells/mL in 96-well tissue culture-treated plates for cell viability and nitric oxide assays. The seeded cells were incubated under standard tissue culture conditions at 37 °C in a humidified atmosphere of 5% CO2 for approximately 24 h until the cells reached 70–80% confluence. The cells were subsequently exposed to the relevant AuNP conjugates, total extract, or compounds. After that, the cells were either left unstimulated or stimulated with 1 μg/mL lipopolysaccharide (LPS, from E. coli O111:B4, Sigma-Aldrich) to yield a final concentration range of 0–100 μg/mL of the appropriate treatment. The cells were then incubated overnight under standard tissue culture conditions.
(§2) The supernatants were removed after incubation, and cells were washed with phosphate-buffered saline (PBS, Lonza). Cell viability was assessed by adding 50 μL of a 1/10 dilution of 2-(4-iodophenyl)-3-(4-nitrophenyl)-5-(2,4-disulfophenyl)-2H-tetrazolium (WST-1, Roche, Basel, Switzerland) in complete DMEM medium to each well. Metabolically active cells convert the WST-1 reagent to a formazan that can be measured spectrophotometrically. Formazan formation was determined by reading the plate at 450 nm immediately after adding WST-1 and again after an incubation period of 1 h at 37 °C. The increase in absorbance is proportional to formazan formation and directly proportional to cell viability. The difference between the zero-absorbance reading and 1 hr incubation was used to calculate the percentage of cell viability. Cell viability was calculated as a percentage of the control using the below formula:(1) Cell viability as a % of Control=T1−T0/U1−U0×100 where T1 is the absorbance of the treated sample after 1 h, T0 is the absorbance of the treated at 0 h, U1 is the absorbance of the untreated sample after 1h, and U0 is the absorbance of the untreated sample at 0 h.

Data set [2] deals with human liver cells, HepG2. On the set-up: method as in PMID 31956937. The conditions noted are these: concentrations ≥ 120 μM, 24 hrs; cited from earlier work.
Data set [3] has as its system NO production, RAW 264.7 cells. Briefly: Nitric oxide (NO) assay (Griess reaction). Format: cell-based, murine. As to conditions: for IC50: Mus musculus, RAW264.7, RAW 264.7, 1 μg/mL LPS, pure compound, ± SEM, read-out: Approximate NO IC50, +LPS, Comp.; for concentration at which NO production / inflammatory activity was reduced: non-toxic concentrations. The method, then:
as §1
In the initial development of the assay, polymyxin inhibition of LPS inflammatory activity was checked. Polymyxin was established to inhibit LPS-induced inflammatory activity in macrophage cultures. Cell culture supernatants were removed after the overnight incubation with the relevant treatment. They were used to determine the amount of nitrite produced by the cells and used as an indication of NO production. The amount of NO produced was determined against a 0–100 μM nitrite standard range (Sigma-Aldrich). Culture supernatants or nitrite standard (50 μL) were mixed with 50 μL of Griess reagent (Sigma-Aldrich). The absorbance was subsequently read spectrophotometrically at 540 nm (Multiskan Ex, Thermo Electron Corporation, Vantaa, Finland), and the amount of NO produced by the cells was quantified. NO levels were not determined at cytotoxic concentrations.
The NO assay based on the Griess reaction was used to assess the production of NO from the RAW cells after the exposure to the NP extract/pure compounds in either the absence or presence of LPS.

The test system of data set [4] is PC12 cells. On the set-up: method as in PMID 19789989. The conditions noted are these: PC12 cells in the presence of neuronal growth factor, 3- and 5-day periods; cited from earlier work.
Data set [5] relates to B65 neuroblastomas. Also on record: method as in PMID 28970010. The conditions noted are these: after 48 h; cited from earlier work.
For data set [6], the system named is RAW 264.7 cell. On the set-up: method as in PMID 18295200, PMID 25871879. The conditions noted are these: 0–1.6 μM or 0–200 μM, 24 h; cited from earlier work.
The nature of data set [7]: Cell viability assay (WST-1). In kind it is cell-based, murine. As to conditions: mouse, RAW 264.7 cells; −LPS, at concentrations ≥ 50 μg/mL; read-out: percentage of viable cells. The protocol: as §1, §2
Setting [8] is: RAW264.7, RAW 264.7, 1 μg/mL LPS, pure compound/extract, overnight exposure, ± SEM, read-out: Approximate cell viability IC50, +LPS, Comp.
The mark [9] stands for this setting: RAW264.7, RAW 264.7, unstimulated (−LPS), pure compound/extract, overnight exposure, ± SEM, read-out: Approximate cell viability IC50, −LPS, Comp.
[10] abbreviates: RAW 264.7, absence of LPS (basal).

Converted amounts (≈) assume the structure as drawn. Read-outs that look alike come from different tables or passages of the source. Bounds are passed on as bounds.

`O=C1C[C@@H](c2ccc(O[C@@H]3O[C@H](CO)[C@@H](O)[C@H](O)[C@H]3O)cc2)Oc2cc(O)ccc21` [Comp. 1, liquiritin]: the IC50 in data set [1] (setting [8]) is roughly 60.5 µg/mL (≈ 145 µM); in data set [1] (setting [9]), roughly 39.7 µg/mL (≈ 94.9 µM); in data set [3], roughly 16.5 µg/mL (≈ 39.4 µM). Also, the “concentration at which cell viability was significantly decreased (cytotoxic)” value was 50 to 100 µg/mL in data set [1] (setting [10]); no less than 50 µg/mL in data set [1] (RAW 264.7, absence of LPS (basal), listed as liquiritin (1)); 50 to 100 µg/mL in data set [1] (RAW 264.7, presence of LPS). In data set [2], the HepG2 viability result is reported as “below 40%”. Also, the “effect on NO secretion (in words)” value is “did not elicit NO secretion” in data set [3] (setting [10]) and “inhibited NO secretion” in data set [3] (RAW 264.7, presence of LPS). For the same compound, the “concentration at which NO production / inflammatory activity was reduced” value in data set [3] (RAW 264.7, presence of LPS, listed as Compound 1) was 25 µg/mL; in data set [3] (RAW 264.7, presence of LPS, listed as liquiritin) it was no less than 25 µg/mL. The “concentration at which cell viability decreased” value in data set [4] is no less than 50 µg/mL.

For `O=C(/C=C/c1ccc(O[C@@H]2O[C@H](CO)[C@@H](O)[C@H](O)[C@H]2O)cc1)c1ccc(O)cc1O` [Comp. 2, isoliquiritin], in data set [1] (setting [10]), the “concentration at which cell viability was significantly decreased (cytotoxic)” value stood at 100 µg/mL. Moreover, the “effect on cell viability (in words)” value is “no cytotoxicity was exhibited” in data set [1] (RAW 264.7, presence of LPS); “no effect on viability” in data set [1] (RAW 264.7, presence of LPS, listed as Isoliquiritin (2)); “did not hinder cell proliferation” in data set [1] (RAW 264.7, presence of LPS, listed as isoliquiritin (2)). For the same compound, the “effect on NO secretion (in words)” value in data set [3] (setting [10]) is recorded as “did not affect the level of NO”. Also, the “concentration at which viability was reduced” value in data set [5] is 100 µM. For the same compound, the “effect on RAW 264.7 cell viability (in words)” value in data set [6] is “not affected”.

Take `O=C(/C=C/c1ccc(O)cc1)c1ccc(O[C@@H]2O[C@H](CO)[C@@H](O)[C@H](O)[C@H]2O)cc1O` [Comp. 3, neoisoliquiritin]: the “effect on NO secretion (in words)” value in data set [3] (setting [10]) is “did not affect the level of NO”; in data set [3] (RAW 264.7, presence of LPS), “did not affect the level of NO”.

`CC1(C)C=Cc2c(ccc3c2OC[C@@H](c2ccc(O)cc2O)C3)O1` [Comp. 6, glabridin]: in data set [7], the viability is no more than 30%. For the same compound, the percentage viability in data set [1] (+LPS, at concentrations ≥ 25 μg/mL) is 65 to 9%. Further, the figures for the concentration for half-maximal inhibition (IC50) in data set [1] (setting [8]), in data set [1] (setting [9]) and in data set [3] were roughly 27.2 µg/mL (≈ 83.9 µM), roughly 28.4 µg/mL (≈ 87.6 µM) and roughly 27.5 µg/mL (≈ 84.8 µM), respectively. For the same compound, in data set [1] (RAW 264.7, LPS status not stated), the “concentration at which toxicity was seen” value was greater than 25 µg/mL. The “concentration at which cell viability was significantly decreased (cytotoxic)” value in data set [1] (setting [10]) is no less than 50 µg/mL; in data set [1] (RAW 264.7, presence of LPS), no less than 25 µg/mL. The “effect on NO secretion (in words)” value was “did not affect NO production” in data set [3] (setting [10]) and “inhibited NO secretion” in data set [3] (RAW 264.7, presence of LPS). Moreover, the “concentration at which NO production / inflammatory activity was reduced” value in data set [3] (RAW 264.7, presence of LPS) is no less than 12.5 µg/mL.

For isoliquiritin apioside [Comp. 4], the “cell viability reduced to” value in data set [1] (+LPS, 25 μg/mL) was 60%; in data set [1] (+LPS, 50 μg/mL) it was 70%. Besides, the “effect on NO secretion (in words)” value is on record as “did not elicit an inflammatory response” in data set [3] (setting [10]) and “did not impact NO secretion” in data set [3] (RAW 264.7, presence of LPS).

Take liquiritin apioside [Comp. 5]: the “concentration at which cell viability was increased (mitogenic effect)” value in data set [1] (RAW 264.7, presence of LPS) was 25 µg/mL. Moreover, in data set [1] (RAW 264.7, unstimulated (−LPS), pure compound/extract, overnight exposure, ± SEM), the “Approximate cell viability IC50, −LPS, Comp.” value came to 47.8 ± 0.2 µg/mL. In addition, the “cell viability reduced to” value in data set [1] (−LPS, 100 μg/mL) turned out to be 40%. In addition, in data set [1] (−LPS, at concentrations ≥ 50 μg/mL), the “reduction of cell viability” value is 40%.

Source of the values: article PMC11051159, “Green Synthesis of Gold Nanoparticles Using Liquiritin and Other Phenolics from Glycyrrhiza glabra and Their Anti-Inflammatory Activity” (Journal of Functional Biomaterials, 2024).
